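Method: 48-hour compound exposure of cells in 96-well plates, five concentrations, linear interpolation of endpoints. The concentration for full growth arrest is given as TGI.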
Key:
Test in all cases: growth of human tumour cells (NCI), 48 h
A549 NSCLC = tested on: A549 NSCLC
SW-620 colon = tested on: SW-620 colon
PC-3 prostate = tested on: PC-3 prostate
HOP-92 NSCLC = tested on: HOP-92 NSCLC
MOLT-4 leukemia = tested on: MOLT-4 leukemia
CCRF-CEM leukemia = tested on: CCRF-CEM leukemia
SNB-19 CNS = tested on: SNB-19 CNS
KM12 colon = tested on: KM12 colon
HCC-2998 colon = tested on: HCC-2998 colon
NCI/ADR-RES ovarian = tested on: NCI/ADR-RES ovarian
UO-31 renal = tested on: UO-31 renal
U251 CNS = tested on: U251 CNS
HCT-116 colon = tested on: HCT-116 colon
UACC-257 melanoma = tested on: UACC-257 melanoma
HS 578T breast = tested on: HS 578T breast
SK-MEL-5 melanoma = tested on: SK-MEL-5 melanoma
OVCAR-4 ovarian = tested on: OVCAR-4 ovarian
NCI-H226 lung = tested on: NCI-H226 lung
MDA-MB-231 breast = tested on: MDA-MB-231 breast
786-0 renal = tested on: 786-0 renal
MCF7 breast = tested on: MCF7 breast
OVCAR-3 ovarian = tested on: OVCAR-3 ovarian
ACHN renal = tested on: ACHN renal
DU-145 prostate = tested on: DU-145 prostate
SK-MEL-28 melanoma = tested on: SK-MEL-28 melanoma
SF-295 CNS = tested on: SF-295 CNS
TK-10 renal = tested on: TK-10 renal
SF-539 CNS = tested on: SF-539 CNS
HT29 colon = tested on: HT29 colon
NCI-H23 lung = tested on: NCI-H23 lung
RXF 393 renal = tested on: RXF 393 renal
A498 renal = tested on: A498 renal
MALME-3M melanoma = tested on: MALME-3M melanoma
M14 melanoma = tested on: M14 melanoma
EKVX NSCLC = tested on: EKVX NSCLC
K-562 leukemia = tested on: K-562 leukemia
MDA-MB-435 = tested on: MDA-MB-435
SN12C renal = tested on: SN12C renal
CAKI-1 renal = tested on: CAKI-1 renal
NCI-H522 lung = tested on: NCI-H522 lung
LOX IMVI melanoma = tested on: LOX IMVI melanoma
HCT-15 colon = tested on: HCT-15 colon
HOP-62 NSCLC = tested on: HOP-62 NSCLC
SK-MEL-2 melanoma = tested on: SK-MEL-2 melanoma
HL-60(TB) leukemia = tested on: HL-60(TB) leukemia
SR leukemia = tested on: SR leukemia
T-47D breast = tested on: T-47D breast
RPMI-8226 leukemia = tested on: RPMI-8226 leukemia
OVCAR-8 ovarian = tested on: OVCAR-8 ovarian
IGROV1 ovarian = tested on: IGROV1 ovarian
SK-OV-3 ovarian = tested on: SK-OV-3 ovarian
SNB-75 CNS = tested on: SNB-75 CNS
SF-268 CNS = tested on: SF-268 CNS
OVCAR-5 ovarian = tested on: OVCAR-5 ovarian
COLO 205 colon = tested on: COLO 205 colon

## O=C1/C(=C/c2ccccc2)N=C2Sc3c(nc[nH]c3=O)N12
A549 NSCLC
  TGI: > 100 µM
SW-620 colon
  TGI: > 100 µM
PC-3 prostate
  TGI: > 100 µM
HOP-92 NSCLC
  TGI: > 100 µM
MOLT-4 leukemia
  TGI: > 100 µM
CCRF-CEM leukemia
  TGI: > 100 µM
SNB-19 CNS
  TGI: > 100 µM
KM12 colon
  TGI: > 100 µM
HCC-2998 colon
  TGI: > 100 µM
NCI/ADR-RES ovarian
  TGI: > 100 µM
UO-31 renal
  TGI: > 100 µM
U251 CNS
  TGI: > 100 µM
HCT-116 colon
  TGI: > 100 µM
UACC-257 melanoma
  TGI: > 100 µM
HS 578T breast
  TGI: > 100 µM
SK-MEL-5 melanoma
  TGI: > 100 µM
OVCAR-4 ovarian
  TGI: > 100 µM
NCI-H226 lung
  TGI: > 100 µM
MDA-MB-231 breast
  TGI: > 100 µM
786-0 renal
  TGI: > 100 µM
MCF7 breast
  TGI: > 100 µM
OVCAR-3 ovarian
  TGI: > 100 µM
ACHN renal
  TGI: > 100 µM
DU-145 prostate
  TGI: > 100 µM
SK-MEL-28 melanoma
  TGI: > 100 µM
SF-295 CNS
  TGI: > 100 µM
TK-10 renal
  TGI: > 100 µM
SF-539 CNS
  TGI: > 100 µM
HT29 colon
  TGI: > 100 µM
NCI-H23 lung
  TGI: > 100 µM
RXF 393 renal
  TGI: > 100 µM
A498 renal
  TGI: > 100 µM
MALME-3M melanoma
  TGI: > 100 µM
M14 melanoma
  TGI: > 100 µM
EKVX NSCLC
  TGI: > 100 µM
K-562 leukemia
  TGI: 83.5 µM
MDA-MB-435
  TGI: > 100 µM
SN12C renal
  TGI: > 100 µM
CAKI-1 renal
  TGI: > 100 µM
NCI-H522 lung
  TGI: > 100 µM
LOX IMVI melanoma
  TGI: > 100 µM
HCT-15 colon
  TGI: > 100 µM
HOP-62 NSCLC
  TGI: > 100 µM
SK-MEL-2 melanoma
  TGI: > 100 µM
HL-60(TB) leukemia
  TGI: > 100 µM
SR leukemia
  TGI: 68 µM
T-47D breast
  TGI: > 100 µM
RPMI-8226 leukemia
  TGI: > 100 µM
OVCAR-8 ovarian
  TGI: > 100 µM
IGROV1 ovarian
  TGI: > 100 µM
SK-OV-3 ovarian
  TGI: > 100 µM
SNB-75 CNS
  TGI: > 100 µM
SF-268 CNS
  TGI: > 100 µM
OVCAR-5 ovarian
  TGI: > 100 µM
COLO 205 colon
  TGI: > 100 µM
